# In patent US10770169B2, “Method of providing a treatment to a subject based on a dynamic pathway map” (THE REGENTS OF THE UNIVERSITY OF CALIFORNIA, priority 2010, dated 2020):
# Read-outs that look alike come from different tables or passages of the source.
# Test system: panel of 55 breast cancer cell lines
# Test: Cell growth inhibition assay (Cell Titer Glo, 72 h, 9 doses; GI50, TGI, LC50)
# Format: cell-based, human
# Conditions: Homo sapiens, read-out: GI50 (converted)
structure (smiles),measurement,setting,value
CC(C)C[C@H](NC(=O)[C@H](Cc1ccccc1)NC(=O)c1cnccn1)B(O)O [Bortezomib],GI50,"600MPE cell line, censored GI50 values",427 nM
same,GI50,"AU565, AU565 cell line, censored GI50 values",5.25 nM
same,GI50,"AU565, cell line AU565",5.25 nM
same,GI50,"BT-20, BT20 cell line, censored GI50 values",46.8 nM
same,GI50,"BT-20, cell line BT20",46.8 nM
same,GI50,"BT-474, BT474 cell line, censored GI50 values",7.41 nM
same,GI50,"BT-474, cell line BT474",7.41 nM
same,GI50,"BT-483, BT483 cell line, censored GI50 values",19.5 nM
same,GI50,"BT-483, cell line BT483",19.5 nM
same,GI50,"BT-549, BT549 cell line, censored GI50 values",6.03 nM
same,GI50,"BT-549, cell line BT549",6.03 nM
same,GI50,"CAMA-1, CAMA1 cell line, censored GI50 values",16.6 nM
same,GI50,"CAMA-1, cell line CAMA1",16.6 nM
same,GI50,"HCC38, HCC38 cell line, censored GI50 values",11 nM
same,GI50,"HCC38, cell line HCC38",11 nM
same,GI50,"HCC70, HCC70 cell line, censored GI50 values",1.78 nM
same,GI50,"HCC70, cell line HCC70",1.78 nM
same,GI50,"HCC202, HCC202 cell line, censored GI50 values",7.24 nM
same,GI50,"HCC202, cell line HCC202",7.24 nM
same,GI50,"HCC1143, HCC1143 cell line, censored GI50 values",8.51 nM
same,GI50,"HCC1143, cell line HCC1143",8.51 nM
same,GI50,"HCC1187, HCC1187 cell line, censored GI50 values",3.39 nM
same,GI50,"HCC1187, cell line HCC1187",3.39 nM
same,GI50,"HCC1395, HCC1395 cell line, censored GI50 values",7.24 nM
same,GI50,"HCC1395, cell line HCC1395",7.24 nM
same,GI50,"HCC1419, HCC1419 cell line, censored GI50 values",4.37 nM
same,GI50,"HCC1419, cell line HCC1419",4.37 nM
same,GI50,"HCC1428, HCC1428 cell line, censored GI50 values",91.2 nM
same,GI50,"HCC1428, cell line HCC1428",91.2 nM
same,GI50,"HCC1500, HCC1500 cell line, censored GI50 values",12.3 nM
same,GI50,"HCC1500, cell line HCC1500",12.3 nM
same,GI50,"HCC1806, HCC1806 cell line, censored GI50 values",22.9 nM
same,GI50,"HCC1806, cell line HCC1806",22.9 nM
same,GI50,"HCC1937, HCC1937 cell line, censored GI50 values",7.59 nM
same,GI50,"HCC1937, cell line HCC1937",7.59 nM
same,GI50,"HCC1954, HCC1954 cell line, censored GI50 values",10 nM
same,GI50,"HCC1954, cell line HCC1954",10 nM
same,GI50,"HCC2185 cell line, censored GI50 values",4.47 nM
same,GI50,"HCC3153 cell line, censored GI50 values",10.5 nM
same,GI50,"LY2 cell line, censored GI50 values",603 nM
same,GI50,"MCF7, MCF7 cell line, censored GI50 values",19.1 nM
same,GI50,"MCF7, cell line MCF7",19.1 nM
same,GI50,"MDA-MB-134-VI, MDAMB134VI cell line, censored GI50 values",8.32 nM
same,GI50,"MDA-MB-157, MDAMB157 cell line, censored GI50 values",6.92 nM
same,GI50,"MDA-MB-157, cell line MDAMB157",6.92 nM
same,GI50,"MDA-MB-175-VII, MDAMB175VII cell line, censored GI50 values",5.25 nM
same,GI50,"MDA-MB-231, MDAMB231 cell line, censored GI50 values",27.5 nM
same,GI50,"MDA-MB-231, cell line MDAMB231",27.5 nM
same,GI50,"MDA-MB-361, MDAMB361 cell line, censored GI50 values",6030 nM
same,GI50,"MDA-MB-361, cell line MDAMB361",6030 nM
same,GI50,"MDA-MB-415, MDAMB415 cell line, censored GI50 values",32.4 nM
same,GI50,"MDA-MB-415, cell line MDAMB415",32.4 nM
same,GI50,"MDA-MB-436, MDAMB436 cell line, censored GI50 values",8.71 nM
same,GI50,"MDA-MB-436, cell line MDAMB436",8.71 nM
same,GI50,"MDA-MB-453, MDAMB453 cell line, censored GI50 values",6.92 nM
same,GI50,"MDA-MB-453, cell line MDAMB453",6.92 nM
same,GI50,"MDA-MB-468, MDAMB468 cell line, censored GI50 values",14.1 nM
same,GI50,"MDA-MB-468, cell line MDAMB468",14.1 nM
same,GI50,"SK-BR-3, SKBR3 cell line, censored GI50 values",7.59 nM
same,GI50,"SK-BR-3, cell line SKBR3",7.59 nM
same,GI50,"SUM52PE, SUM52PE cell line, censored GI50 values",5.25 nM
same,GI50,"SUM52PE, cell line SUM52PE",5.25 nM
same,GI50,"SUM149PT, SUM149PT cell line, censored GI50 values",7.41 nM
same,GI50,"SUM149PT, cell line SUM149PT",7.41 nM
same,GI50,"SUM185PE, SUM185PE cell line, censored GI50 values",5.37 nM
same,GI50,"SUM185PE, cell line SUM185PE",5.37 nM
same,GI50,"SUM225CWN, SUM225CWN cell line, censored GI50 values",10.5 nM
same,GI50,"SUM225CWN, cell line SUM225CWN",10.5 nM
same,GI50,"SUM1315MO2, SUM1315MO2 cell line, censored GI50 values",13.8 nM
same,GI50,"SUM-159-PT, SUM159PT cell line, censored GI50 values",7.41 nM
same,GI50,"SUM-159-PT, cell line SUM159PT",7.41 nM
same,GI50,"T47D, T47D cell line, censored GI50 values",8.32 nM
same,GI50,"T47D, cell line T47D",8.32 nM
same,GI50,"UACC-812, UACC812 cell line, censored GI50 values",24 nM
same,GI50,"UACC-812, cell line UACC812",24 nM
same,GI50,"UACC-893, UACC893 cell line, censored GI50 values",0.646 nM
same,GI50,"UACC-893, cell line UACC893",0.646 nM
same,GI50,"ZR-75-1, ZR751 cell line, censored GI50 values",17.4 nM
same,GI50,"ZR-75-1, cell line ZR751",17.4 nM
same,GI50,"ZR-75B, ZR75B cell line, censored GI50 values",132 nM
same,GI50,"ZR-75B, cell line ZR75B",132 nM
same,GI50,cell line 600MPE,427 nM
same,GI50,cell line HCC2185,4.47 nM
same,GI50,cell line HCC3153,10.5 nM
same,GI50,cell line LY2,603 nM
same,GI50,cell line MDAMB134V,8.32 nM
same,GI50,cell line MDAMB175V,5.25 nM
same,GI50,cell line SUM1315MO,13.8 nM
